The test system of one series is tail artery pressure. The series can be described thus: Decrease in the blood pressure in rats (tail cuff method). The class given is in vivo. The following applies: rat, dose causing 20 mmHg decrease in blood pressure 1 hour after administration. The procedure:
Decrease in the blood pressure in rats:
This test was conducted by the tail cuff method. That is, each of Crj:CD male rats (from 8 to 9 weeks old) had been warmed to fully expand the tail artery. The tail artery pressure was then measured immediately before, and 1 hour after, the oral administration of the test compound using a non-invasive blood pressure measuring device. In this test, nicardipine and Compound A were used as comparative substances. With respect to the decrease in the blood pressure, a dose at which to cause the decrease in the blood pressure by 20 mmHg from the blood pressure immediately before the administration was calculated as ED20 from the regression line of the decrease (mmHg) in the blood pressure relative to the logarism of the dose of the test compound. As is clear from Tables 2-1 and 2—2, the compound of the present invention has a higher selectivity for the intestinal tract than Compound A, and it can be an excellent agent of improving an abnormal moving function of the digestive tract.

A further series has as its system rat pupillary diameter. Description: Anticholinergic activity by mydriasis of rats. In kind it is in vivo. As to conditions: for rat pupillary diameter (mm) 1 hour / rat pupillary diameter (mm) 2 hours / rat pupillary diameter (mm) 6 hours: 300 mg/kg p.o.; for rat pupillary diameter (mm) 1 hour: after 1 hour; for rat pupillary diameter (mm) 2 hours: after 2 hours; for rat pupillary diameter (mm) 6 hours: after 6 hours; for rat pupillary diameter (mm) before: before administration of 300 mg/kg p.o. The procedure:
Anticholinergic activity by mydriasis of rats: […] The diameter of the pupil after 1, 2 or 6 hours was measured using a stereoscopic microscope of 5x magnification.

The next series concerns WRS-induced defecation. The series can be described thus: Inhibition of acceleration of stool excretion in a wrap restraint stress (WRS) model. The following applies: rat, p.o. 30 minutes before stress, stool over 1 hour, Litchfield-Wilcoxon method. In kind it is in vivo. The procedure:
In-vivo test [effect of inhibiting acceleration of stool excretion in a wrap restraint stress (WRS) model]:
The test was conducted by the method of William et al. [Gastroenterology, 94, 611 (1988)]. That is, each of Crj:CD male rats (from 6 to 7 weeks old) was slightly etherized, and the fore shoulder, the foreleg and the chest thereof were wrapped with a paper tape to apply stress thereto. The rat was allowed to stand under stress for 1 hour, and the amount of stool excreted during that time was measured. The test compound was orally administered to the rat 30 minutes before applying the stress thereto. The normal group was etherized, and then allowed to stand for 1 hour without applying stress thereto. Thereafter, the amount of stool excreted was measured. In this test, nicardipine and Compound A were used as comparative substances. The 50% inhibition dose (ID50) relative to the increase in the […] of stool owing to WRS was calculated by the Litchfield-Wilcoxon method, and the results are shown in Table 2-1. In addition, and inhibition of test compounds (lomg/kg, p.o.) expressed as a percentage of control were determined and the results were shown in Table 2—2.

Series [1] in a line: Decrease in the body temperature of rats. In kind it is in vivo. The following applies: rat, 100 mg/kg p.o.; for change in body temperature 1 hour: rectal temperature after 1 hour; for change in body temperature 2 hour: rectal temperature after 2 hours; for change in body temperature 5 hour: rectal temperature after 5 hours. As to the method:
Decrease in the body temperature of rats:
A suspension of 100 mg/kg of a test compound in 0.5% methyl cellulose was orally administered to each of Crj:CD male rats (from 7 to 8 weeks old), and the body temperature (temperature of the rectum) after 1, 2 or 5 hours was measured using a thermistor thermometer, and the difference in the body temperature between the compound of the present invention and the comparative substance is shown in Table 4.

A short description of the next series: Acute toxicity test. The following applies: ddy, mouse, in vivo, ip; male mice, i.p., mortality observed for 7 days; read-out: 50% lethal dose (LD50, mg/kg, i.p.).
The next series concerns Crj:CD male rats. Description: Test for a toxicity in continuous administration for 1 week. As to conditions: rat, 100 mg/kg p.o. once daily for 1 week. The class given is in vivo. The procedure:
Test for a toxicity in continuous administration for 1 week:
A suspension of 100 mg/kg of the compound in Example 2 or 12 in 0.5% methyl cellulose was orally administered to each of Crj:CD male rats (6 weeks old) continuously for 1 week at a rate of one administration per day to observe general conditions, to measure the body weight, to conduct biochemical inspection of the blood, to measure the weights of the internal organs and to conduct pathological inspection.

`Cl.N#Cc1ccc(CCN2CCC[C@@H]2CN2c3ccccc3COc3ccccc32)cc1`: the melting point was in the range of 109 to 112 °C.

Regarding `COc1ccc(CCN2CCC[C@H]2CN2c3ccccc3COc3ccccc32)cc1OC.Cl`, the melting point fell in the range of 106 to 109 °C.

The compound `Cl.c1ccc2c(c1)COc1ccccc1N2C[C@@H]1CCCN1CCc1ccc2c(c1)OCO2` showed a melting point of 158 to 162 °C.

On to `COc1cccc(CCN2CCC[C@H]2CN2c3ccccc3COc3ccccc32)c1.Cl`, for which the melting point is 164 to 166 °C.

In turn, `Cl.c1ccc(CCN2CCC[C@@H]2CN2c3ccccc3COc3ccccc32)cc1` had a melting point of 179 to 182 °C.

`COc1ccc(CCN2CCC[C@@H]2CN2c3ccccc3COc3ccccc32)cc1OC.Cl`: the melting point lay within 106 to 109 °C.

Regarding `COc1ccc(CCN2CCC[C@H]2CN2c3ccccc3CSc3ccccc32)cc1.Cl` [Compound A, reference compound], in the series on tail artery pressure, the “Hypotensive effect (ED20, mg/kg, p.o.)” value was more than 100 mg/kg. Also, in the series on rat pupillary diameter, the “rat pupillary diameter (mm) 1 hour” value was determined as 2.18 mm, the “rat pupillary diameter (mm) 2 hours” value was 2.27 mm, the “rat pupillary diameter (mm) 6 hours” value was found to be 2.62 mm and the “rat pupillary diameter (mm) before” value came out at 0.85 mm. In addition, the “Inhibitory effect on WRS-induced defecation (ID50, mg/kg, p.o.)” value (“Inhibitory effect … (ID50, mg/kg, p.o.)” for short) in the series with WRS-induced defecation is listed as 34.8 mg/kg. In addition, in series [1], the “change in body temperature 1 hour” value is listed as −0.5, the “change in body temperature 2 hour” value was −0.6 and the “change in body temperature 5 hour” value is on record as −0.5. In addition, the LD50 at 7 days in “Acute toxicity test” turned out to be 162 mg/kg.

Take `COc1ccc(CCN2CCC[C@@H]2CN2c3ccccc3COc3ccccc32)cc1.Cl` [Example 2, (R)-(+)-5,11-dihydro-5-[1-(4-methoxyphenethyl)-2-pyrrolidinylmethyl]-dibenzo[b,e][1,4]oxazepine hydrochloride]: in the series with tail artery pressure, the “Hypotensive effect (ED20, mg/kg, p.o.)” value was more than 1000 mg/kg. Moreover, in the series on rat pupillary diameter, the “rat pupillary diameter (mm) 1 hour” value turned out to be 0.90 mm, the “rat pupillary diameter (mm) 2 hours” value is listed as 0.77 mm, the “rat pupillary diameter (mm) 6 hours” value stood at 0.97 mm and the “rat pupillary diameter (mm) before” value is listed as 0.97 mm. In the series with WRS-induced defecation, the “Inhibitory effect … (ID50, mg/kg, p.o.)” value is on record as 3.1 mg/kg. For the same compound, in series [1], the “change in body temperature 1 hour” value is recorded as 0, the “change in body temperature 2 hour” value was −0.1 and the “change in body temperature 5 hour” value is listed as −0.2. The “toxicity findings (general conditions, body weight, blood biochemistry, organ weights, pathology)” value with Crj:CD male rats is listed as “no remarkable change was observed”. Moreover, the LD50 at 7 days in “Acute toxicity test” was found to be 175 mg/kg.

Take `Cl.Fc1ccc(CCN2CCC[C@@H]2CN2c3ccccc3COc3ccccc32)cc1` [Example 4, (R)-(+)-5,11-dihydro-5-[1-(4-fluorophenethyl)-2-pyrrolidinylmethyl]dibenzo[b,e][1,4]oxazepine hydrochloride]: the “Hypotensive effect (ED20, mg/kg, p.o.)” value in the series on tail artery pressure was more than 1000 mg/kg. In addition, in the series with rat pupillary diameter, the “rat pupillary diameter (mm) 1 hour” value amounted to 0.70 mm, the “rat pupillary diameter (mm) 2 hours” value came out at 0.57 mm, the “rat pupillary diameter (mm) 6 hours” value was 0.70 mm and the “rat pupillary diameter (mm) before” value worked out at 0.80 mm. For the same compound, in the series with WRS-induced defecation, the “Inhibitory effect … (ID50, mg/kg, p.o.)” value is reported as 1.8 mg/kg. Further, in series [1], the “change in body temperature 1 hour” value was −0.3, the “change in body temperature 2 hour” value is −0.2 and the “change in body temperature 5 hour” value is “+0.1”. The LD50 at 7 days in the series “Acute toxicity test” is more than 200 mg/kg.

Regarding `COc1ccc(CCN2CCC[C@H]2CN2c3ccccc3COc3ccccc32)cc1.Cl` [Example 12, (S)-(−)-5,11-dihydro-5-[1-(4-methoxyphenethyl)-2-pyrrolidinylmethyl]dibenzo[b,e][1,4]oxazepine hydrochloride], the “toxicity findings (general conditions, body weight, blood biochemistry, organ weights, pathology)” value in the series with Crj:CD male rats was “no remarkable change was observed”. The LD50 at 7 days in “Acute toxicity test” is more than 280 mg/kg.

For the compound `COC(=O)C1=C(C)NC(C)=C(C(=O)OCCN(C)Cc2ccccc2)C1c1cccc([N+](=O)[O-])c1` (centres unmarked) [nicardipine, reference compound], the “Hypotensive effect (ED20, mg/kg, p.o.)” value in the series with tail artery pressure is on record as 4.0 mg/kg. Further, the “Inhibitory effect … (ID50, mg/kg, p.o.)” value in the series on WRS-induced defecation was 6.8 mg/kg.

Source of the values: US6436922B1, “5,11-dihydrobenzo[b,e][1,4]oxazepine derivatives and pharmaceutical compositions containing the same” (Ajinomoto Co., Inc., priority 1996, dated 2002).
